Series [1] deals with Leishmania donovani. The series can be described thus: Antileishmanial activity against Leishmania donovani promastigotes after 72 hr by alamar blue assay. Type of series: functional, organism-based.
Series [2] deals with Vero. Kind of series: (§1) Cytotoxicity against Chlorocebus aethiops (African green monkey) Vero cells by Neutral Red assay. Type of series: cell-based. As to conditions: chlorocebus sabaeus, vero.
For series [3], the system named is Plasmodium falciparum. The series can be described thus: Antimalarial activity against Plasmodium falciparum D6 after 72 hr by LDH assay. Type of series: functional, organism-based. As to conditions: D6, 72 h.
Series [4] addresses Falcipain-3 (Plasmodium falciparum, UniProt Q8IIL0). Kind of series: Inhibition of recombinant Plasmodium falciparum falcipain-3 using Z-Leu-Arg-AMC as substrate compound treated for 30 min before substrate addition by fluorescence assay.
Series [5] addresses T1, Falcipain 2 (Plasmodium falciparum, UniProt Q9N6S8).
T1 sequence (Q9N6S8 whole entry): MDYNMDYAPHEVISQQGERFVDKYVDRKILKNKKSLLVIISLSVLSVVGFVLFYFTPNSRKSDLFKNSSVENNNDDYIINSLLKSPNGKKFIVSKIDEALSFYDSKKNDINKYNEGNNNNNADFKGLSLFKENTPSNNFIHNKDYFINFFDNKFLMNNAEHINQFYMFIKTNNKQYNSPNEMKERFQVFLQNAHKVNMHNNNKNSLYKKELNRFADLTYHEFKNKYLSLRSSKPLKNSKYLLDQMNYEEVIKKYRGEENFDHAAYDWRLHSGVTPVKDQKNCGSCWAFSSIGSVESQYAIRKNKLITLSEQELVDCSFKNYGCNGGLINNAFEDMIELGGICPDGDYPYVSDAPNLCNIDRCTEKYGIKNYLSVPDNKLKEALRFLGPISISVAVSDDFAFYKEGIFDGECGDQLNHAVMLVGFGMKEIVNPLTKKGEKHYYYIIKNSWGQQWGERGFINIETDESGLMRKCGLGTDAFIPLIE
Kind of series: Inhibition of recombinant Plasmodium falciparum falcipain-2 using Z-Leu-Arg-AMC as substrate compound treated for 30 min before substrate addition by fluorescence assay.

The test system of series [6] is Plasmodium falciparum. Kind of series: Antimalarial activity against Plasmodium falciparum W2 after 72 hr by LDH assay. Type of series: functional, organism-based. The settings on record: W2, 72 h.
Series [7] deals with Plasmodium falciparum. Kind of series: Antimalarial activity against Plasmodium falciparum D6 at EC50 after 72 hr by LDH assay. Type of series: functional. Details: concentration or dose not given beside the values.
Series [8] deals with Plasmodium falciparum. Kind of series: Antimalarial activity against Plasmodium falciparum W2 […] after 72 hr by LDH assay. Type of series: functional.
Series [9] can be described thus: as §1. In kind it is cell-based. The settings on record: chlorocebus sabaeus, Vero cells; read-out: TD50 (the source's name).
The test system of series [10] is Vero. Kind of series: Cytotoxicity against Chlorocebus aethiops (African green monkey) Vero cells at TD50 by Neutral Red assay. In kind it is cell-based. As to conditions: chlorocebus sabaeus.

The values that follow come from ChEMBL document CHEMBL3044762, “Design, Synthesis and Evaluation of Trisubstituted Thiazoles Targeting Plasmodium Falciparum Cysteine Proteases” (Med Chem Res, 2005).

Some results are limits rather than exact numbers.

Falcipain-3, sequence (Q8IIL0 whole entry, looked up): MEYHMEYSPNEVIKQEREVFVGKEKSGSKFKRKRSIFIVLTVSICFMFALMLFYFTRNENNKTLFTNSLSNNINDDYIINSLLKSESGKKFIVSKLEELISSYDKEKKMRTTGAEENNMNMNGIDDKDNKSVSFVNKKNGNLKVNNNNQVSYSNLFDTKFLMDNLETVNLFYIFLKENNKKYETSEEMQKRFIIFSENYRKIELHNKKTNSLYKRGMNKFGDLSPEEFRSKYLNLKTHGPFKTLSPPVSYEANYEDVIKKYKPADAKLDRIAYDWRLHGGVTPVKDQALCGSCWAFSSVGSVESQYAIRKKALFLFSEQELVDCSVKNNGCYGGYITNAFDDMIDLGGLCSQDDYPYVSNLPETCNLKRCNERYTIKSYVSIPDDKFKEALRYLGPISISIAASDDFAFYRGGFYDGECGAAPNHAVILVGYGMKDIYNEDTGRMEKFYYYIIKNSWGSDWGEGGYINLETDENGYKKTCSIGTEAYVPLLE

As to `CC(=O)OCc1nc(CCC(=O)CSCCCc2ccccc2)sc1CCc1ccccc1`, the figures for the EC50 in series [1], in series [3] and in [6] were 29.1 µM, 30.5 µM and 24.9 µM, respectively. For the same molecule, in series [2], the TD50 result is “Non-toxic”. The IC50 was more than 50 µM in series [4] and more than 33 µM in series [5].

`Nc1nc(CCc2ccccc2)c(CCCO)s1`: the results for the EC50 in series [1], in [3] and in [6] were more than 152 µM, more than 90.7 µM and more than 90.7 µM, respectively. In [2], the TD50 entry is listed as “Non-toxic”. Besides, the “inhibition (INH)” value in [7] stood at 37%; in [8], 26%.

With `O=C(/C=C/c1nc(CCc2ccccc2)c(CCCO)s1)CSCCCc1ccccc1`, the 50% effective concentration (EC50) in [1] was 4.5 µM; in series [3], 35.4 µM; in [6], 13.8 µM. Moreover, the CC50 in series [9] is more than 51.1 µM. Moreover, the IC50 in [4] was 29.4 µM; in series [5] it was less than 6.6 µM.

With `CC(=O)NCCCc1sc(CCC(=O)CSCCCc2ccccc2)nc1CCc1ccccc1`, the EC50 in [1] was determined as 39.3 µM; in [3], 32.4 µM; in [6], 16.8 µM. Further, the TD50 result in [2] is reported as “Non-toxic”. Further, the IC50 is more than 50 µM in series [4] and more than 33 µM in [5].

`N=C(N)c1ccc(OCCCCCOc2ccc(C(=N)N)cc2)cc1` [PENTAMIDINE] had an EC50 in series [1] of 5 µM.

Regarding `C[C@@H]1CC[C@H]2[C@@H](C)C(=O)O[C@@H]3O[C@@]4(C)CC[C@@H]1[C@]32OO4` [ARTEMISININ], the EC50 in series [3] was 0.025 µM; in series [6], 0.023 µM.

As for `CCN(CC)CCCC(C)Nc1ccnc2cc(Cl)ccc12` (stereo not drawn) [CHLOROQUINE], the EC50 in series [3] came out at 0.059 µM; in series [6], 0.359 µM.

In turn, `NC(=O)CCc1sc(CCC(=O)CSCCCc2ccccc2)nc1CCc1ccccc1` gave an Activity in [10] of 38%. Also, the EC50 in series [1] was 41.6 µM; in [3], more than 49.5 µM; in [6], more than 49.5 µM. Further, in series [9], the CC50 is more than 49.5 µM. Moreover, the entries for the “inhibition (INH)” value in series [7] and in series [8] were 42% and 43%, respectively. Besides, the IC50 in series [4] is more than 50 µM; in series [5], more than 33 µM.

In the case of `CCOC(=O)CCc1sc(NC(=O)CSCCCc2ccccc2)nc1/C=C/c1ccccc1`, the EC50 in series [1] is 50.5 µM; in [3] it was 28.3 µM; in series [6] it was 20.2 µM. Besides, in [2], the TD50 result was “Non-toxic”.

Turning to `O=C(CCc1nc(CCc2ccccc2)c(CCCO)s1)CSCCCc1ccccc1`, the results for the EC50 in [1], in [3] and in series [6] were 16.3 µM, 20.3 µM and 19.1 µM, respectively. Also, the CC50 in series [9] worked out at 40.6 µM. Besides, the IC50 is more than 50 µM in [4] and more than 12.5 µM in [5].

Turning to `O=C(CCc1nc(CO)c(CCc2ccccc2)s1)CSCCCc1ccccc1`, the results for the IC50 in series [4] and in series [5] were more than 50 µM and more than 12.5 µM, respectively. Besides, the EC50 in series [6] is more than 20 µM.

With `O=CCCc1sc(CCC(=O)CSCCCc2ccccc2)nc1CCc1ccccc1`, the EC50 in series [1] is 8.2 µM; in [3] it was more than 51.1 µM; in [6], more than 51.1 µM. In addition, in series [2], the TD50 entry is listed as “Non-toxic”. The “inhibition (INH)” value in [7] turned out to be 45%; in [8], 26%. Further, the IC50 in [4] is more than 50 µM; in series [5], 39.1 µM.

In [1], `C[C@@H]1[C@H](O)[C@@H](C)/C=C/C=C/C=C/C=C/C=C/C=C/C=C/[C@H](O[C@@H]2O[C@H](C)[C@@H](O)[C@H](N)[C@@H]2O)C[C@@H]2O[C@](O)(C[C@@H](O)C[C@@H](O)[C@H](O)CC[C@@H](O)C[C@@H](O)CC(=O)O[C@H]1C)C[C@H](O)[C@H]2C(=O)O` [AMPHOTERICIN B] returned an EC50 of 0.2 µM.

`NC(=O)CCc1sc(NC(=O)CSCCCc2ccccc2)nc1/C=C/c1ccccc1`: the EC50 in series [1] was 47.2 µM; in [3] it was more than 51.1 µM; in series [6] it was more than 51.1 µM. Also, the TD50 result in series [2] is “Non-toxic”. Moreover, the figures for the “inhibition (INH)” value in [7] and in [8] were 45% and 26%, respectively. Also, the values for the IC50 in series [4] and in series [5] were 55.2 µM and 15.3 µM, respectively.
